Data on one compound can be found in US20230104487A1, “11-(4-CHLOROPHENYL)-4-(2,3-DIHYDRO-1H-INDOLE-1-CARBONYL)-3,11-DIMETHYL-5,10,DIOXATRICYCLO[7.4.0.0,2,6,]TRIDECA-1,3,6,8-TETRAEN-13-ONE AND DERIVATIVES AS DESTABILIZER OF CRY1 FOR THE TREATMENT OF CIRCADIAN RHYTHM ASSOCIATED DISEASES AND DISORDERS” (KOC UNIVERSITESI, priority 2019, published 2023).

Entries after “also recorded” stand apart in the source; their conditions may differ.

A word on the mortality: it is the share of the test organisms that died.

Data set [1] relates to LUC. The data set is described as follows: LUC degradation control in HEK293T. Format: cell-based, firefly. An excerpt: To insert Cry1-Luc, Cry2-Luc constructs and only Luc into pcDNA4A-myc-his plasmid, coding sequence of mouse Cry1 and firefly Luciferase in pG5luc plasmid (Addgene) was amplified with primers having EcoRV-NotI and NotI-XhoI flanking sites for Crys and Luc, respectively. Product size was verified by visualizing in agarose gel and product was isolated from the gel by using NucleoSpin PCR and Gel purification kit (Macherey Nagel). pcDNA4A plasmid having Luc was double digested with NotI and XhoI and used as insert; Cry1 pcDNA4A-myc-his and Cry2 pcDNA4A-myc-his plasmids were double digested with NotI and XhoI FastDigest enzymes (Thermo Scientific) and used as host plasmids. Hosts were treated with FASTAP (Thermo Scientific) to prevent self-annealing. After gel isolation and cleaning inserts with Gel purification kit (Macherey Nagel) and destination vectors were ligated by using T4 DNA ligase (Thermo Scientific).
40 ng of Cry1-Luc, Cry2-Luc, mutant Cry1-Luc plasmids or 5 ng Luc plasmid were reverse transfected to 4×10^4 HEK293T cells on opaque 96-well plate with flat bottom via PEI transfection reagent. 24 h after transfection, cells were treated with molecules or solvent (DMSO). […] Luminescence readings were recorded every 10 min at 32° C. for 24 h. Half-life of protein was calculated via one-phase exponential decay fitting function in GraphPad Prism5 software. […]

Data set [2] has as its system C57BL/6J mice. The data set is described as follows: Repeated dose toxicity study, 5-day maximum tolerated dose. Format: in vivo. How it is done:
The single dose toxicity data were used to assist the selection of the doses in this repeated dose toxicity study. C57BL/6J mice (n=6 per group) were treated with 40, 80 or 150 mg/kg doses of FORMULA I intraperitoneally for 5 days. Control mice (n=4) were only treated with vehicle (DMSO:Cremophor EL:0.9% NaCl; 2.5:15:82.5, v/v, i.p.). Throughout the study, animals were monitored for mortality, clinical signs, body weight changes, body temperature, food and water consumptions, behaviour assessment and gross findings at the terminal necropsy. Body weights and body temperatures of mice were measured every day as an index of toxicity. Within 48 h after the last dose of FORMULA I administration, blood was collected from mice by cardiac puncture under isoflurane anesthesia. Hematological and biochemical analyzes were performed in blood. Liver, spleen, kidneys and lungs were removed and fixed in 10% formalin solution for histological examinations.

The test system of data set [3] is Dbp, Cry1, Cry2, Per2 mRNA. The data set is described as follows: RT-qPCR of clock genes, synchronized U2-OS cells. Format: cell-based, human. Particulars: 10 μM, 72-92 h. How it is done: FIGS. 3A-3G are an illustration of FORMULA I decreased CRY1 level in synchronized U2-OS cells. Confluent U2-OS cells were synchronized by 2 h treatment with dexamethasone ([…]) and medium replaced with fresh medium containing FORMULA I or solvent (DMSO final 0.5%). Cells were harvested at indicated time points. FIGS. 3A-3B show lysed cells were analyzed via protein immunoblot technique. […] CRY levels in DMSO control divided by that of in FORMULA I treated samples were reported (mean±SEM, n=4). FIGS. 3C-3G show cells were subjected to reverse-transcription-quantitative polymerase chain reaction (RT-qPCR). […] Expression level of genes was normalized according to the expression level of that gene at 72ndh. (Data represent the mean±SEM, n=3 with duplicates ***: p<0.001 **: p<0.005, *: p<0.05 versus DMSO control by two-way ANOVA).
QIAGEN RNeasy Mini Kit was used to isolate the mRNA. Protocol provided by the manufacturer was followed. […] Quantity of RNA was determined by Nanodrop 2000 (Thermo Scientific). […] For quantitative real time PCR (qRT-PCR) analysis cDNAs were further diluted 5-fold (1:5). mRNA expression levels were calculated by qRT-PCR with the SYBR Green. […] 10 seconds denaturation, 57 to 62° C. for 20 seconds annealing (the degree is determined by primer type) and 72° C. for 30 seconds of elongation, 35 cycles. […]
In general terms: Real-time PCR tracks product formation cycle by cycle.

Setting [4] is: 150 mg/kg i.p. for 5 days, 3th day of injection.

Regarding `Cc1c(C(=O)N2CCc3ccccc32)oc2ccc3c(c12)C(=O)CC(C)(c1ccc(Cl)cc1)O3` (centres unmarked) [FORMULA I, 11-(4-chlorophenyl)-4-(2,3-dihydro-1H-indole-1-carbonyl)-3,11-dimethyl-5,10,dioxatricyclo[7.4.0.0,2,6,]trideca-1,3,6,8-tetraen-13-one], the “stability of LUC” value in data set [1] was “no effect on the stability of LUC”. For the same compound, the body temperature result in data set [2] (40 mg/kg i.p. for 5 days) is on record as “comparable to the control animals”. In addition, in data set [2] (150 mg/kg i.p. for 5 days), the clinical signs entry was “hyporeflexia”. Also, in data set [2] (setting [4]), the deaths is reported as 1/6 and the mortality is reported as 16.6%. Also, in data set [2] (150 mg/kg i.p., 3rd day of injection), the “highest mean body weight loss” value stood at 6.3%. In data set [2] (40 and 80 mg/kg i.p. for 5 days), the clinical signs entry was “no observed clinical signs”. Moreover, the “body temperature (mild hypothermia)” value in data set [2] (80 and 150 mg/kg i.p., first day) is 33.4-35.8 °C. Further, the tolerability result in data set [2] (doses of 5 and 80 mg/kg (so in the source), 5 days) is recorded as “well-tolerated”. Moreover, in data set [3], the “Dbp and Per2 mRNA levels” value was “Increase in clock output genes of the Dbp and Per2 mRNA levels; also recorded: increased the level of Dbp and Per2”; the “peak time and abundance of Cry1, Cry2 (and Dbp) mRNA” value is “changed the peak time without significantly changing their overall abundance; also recorded: changed the peak time of Dbp, Cry1 and Cry2”.
